“And” between values parts separate entries of the source, which are not always exact repeats. Identical values can stand only once. ± gives the uncertainty stated by the source.
Assay: xn = mol fraction of the nth substance listed

CC(C)C(=O)O + O
Conditions | viscosity
293.15 K, 101.33 kPa, x1 = 0.011 | 1.181 ± 0.012 mPa·s
293.15 K, 101.33 kPa, x1 = 0.0222 | 1.448 ± 0.014 mPa·s
293.15 K, 101.33 kPa, x1 = 0.0348 | 1.558 ± 0.016 mPa·s
293.15 K, 101.33 kPa, x1 = 0.0486 | 1.779 ± 0.018 mPa·s
299.35 K, 101.33 kPa, x1 = 0.11 | 2.904 ± 0.021 mPa·s
299.36 K, 101.33 kPa, x1 = 0.11 | 2.896 ± 0.021 mPa·s
299.37 K, 101.33 kPa, x1 = 0.11 | 2.882 ± 0.021 mPa·s
299.38 K, 101.33 kPa, x1 = 0.11 | 2.868 ± 0.021 mPa·s
299.39 K, 101.33 kPa, x1 = 0.11 | 2.846 ± 0.021 mPa·s and 2.836 ± 0.021 mPa·s
299.4 K, 101.33 kPa, x1 = 0.11 | 2.813 ± 0.021 mPa·s
299.43 K, 101.33 kPa, x1 = 0.11 | 2.767 ± 0.02 mPa·s
299.45 K, 101.33 kPa, x1 = 0.11 | 2.751 ± 0.02 mPa·s
299.48 K, 101.33 kPa, x1 = 0.11 | 2.711 ± 0.02 mPa·s
299.5 K, 101.33 kPa, x1 = 0.11 | 2.69 ± 0.02 mPa·s
299.56 K, 101.33 kPa, x1 = 0.11 | 2.645 ± 0.02 mPa·s
299.64 K, 101.33 kPa, x1 = 0.11 | 2.606 ± 0.019 mPa·s
299.72 K, 101.33 kPa, x1 = 0.11 | 2.571 ± 0.019 mPa·s
299.85 K, 101.33 kPa, x1 = 0.11 | 2.541 ± 0.019 mPa·s
299.96 K, 101.33 kPa, x1 = 0.11 | 2.506 ± 0.019 mPa·s
300.15 K, 101.33 kPa, x1 = 0.11 | 2.466 ± 0.018 mPa·s
300.4 K, 101.33 kPa, x1 = 0.11 | 2.422 ± 0.018 mPa·s
301.15 K, 101.33 kPa, x1 = 0.11 | 2.317 ± 0.017 mPa·s
302.15 K, 101 kPa, x1 = 0.0106 | 0.9416 ± 0.0059 mPa·s
302.15 K, 101 kPa, x1 = 0.0222 | 1.066 ± 0.0065 mPa·s
302.15 K, 101 kPa, x1 = 0.0348 | 1.21 ± 0.0073 mPa·s
302.15 K, 101 kPa, x1 = 0.0486 | 1.388 ± 0.0083 mPa·s
302.15 K, 101 kPa, x1 = 0.0545 | 1.469 ± 0.0087 mPa·s
302.15 K, 101 kPa, x1 = 0.0638 | 1.6 ± 0.0094 mPa·s
302.15 K, 101 kPa, x1 = 0.0737 | 1.74 ± 0.01 mPa·s
302.15 K, 101 kPa, x1 = 0.0806 | 1.837 ± 0.011 mPa·s
302.15 K, 101 kPa, x1 = 0.0915 | 1.999 ± 0.012 mPa·s
302.15 K, 101 kPa, x1 = 0.1114 | 2.213 ± 0.013 mPa·s
302.15 K, 101 kPa, x1 = 0.12 | 2.285 ± 0.013 mPa·s
302.15 K, 101 kPa, x1 = 0.129 | 2.348 ± 0.013 mPa·s
302.15 K, 101 kPa, x1 = 0.1433 | 2.423 ± 0.014 mPa·s
302.15 K, 101 kPa, x1 = 0.1698 | 2.499 ± 0.014 mPa·s
302.15 K, 101 kPa, x1 = 0.1999 | 2.568 ± 0.015 mPa·s
302.15 K, 101 kPa, x1 = 0.2347 | 2.614 ± 0.015 mPa·s
302.15 K, 101 kPa, x1 = 0.323 | 2.632 ± 0.015 mPa·s
302.15 K, 101 kPa, x1 = 0.4499 | 2.493 ± 0.014 mPa·s
302.15 K, 101 kPa, x1 = 0.4996 | 2.403 ± 0.014 mPa·s
302.15 K, 101 kPa, x1 = 0.7953 | 1.685 ± 0.0098 mPa·s
302.15 K, 101 kPa, x1 = 0.9529 | 1.27 ± 0.0076 mPa·s
302.27 K, 101.33 kPa, x1 = 0.11 | 2.211 ± 0.017 mPa·s
303.11 K, 101.33 kPa, x1 = 0.11 | 2.144 ± 0.016 mPa·s
303.15 K, 101.33 kPa, x2 = 0.352 | 1.51 ± 0.04 mPa·s
303.15 K, 101.33 kPa, x2 = 0.55 | 2.12 ± 0.056 mPa·s
303.15 K, 101.33 kPa, x2 = 0.677 | 2.43 ± 0.064 mPa·s
303.15 K, 101.33 kPa, x2 = 0.765 | 2.51 ± 0.066 mPa·s
303.15 K, 101.33 kPa, x2 = 0.83 | 2.42 ± 0.064 mPa·s
303.15 K, 101.33 kPa, x2 = 0.88 | 2 ± 0.053 mPa·s
303.15 K, 101.33 kPa, x2 = 0.919 | 1.58 ± 0.042 mPa·s
303.15 K, 101.33 kPa, x2 = 0.951 | 1.28 ± 0.034 mPa·s
303.15 K, 101.33 kPa, x2 = 0.978 | 1.02 ± 0.027 mPa·s
304.12 K, 101.33 kPa, x1 = 0.11 | 2.07 ± 0.016 mPa·s
305.07 K, 101.33 kPa, x1 = 0.11 | 2.003 ± 0.015 mPa·s
305.15 K, 101 kPa, x1 = 0.0106 | 0.8833 ± 0.0056 mPa·s
305.15 K, 101 kPa, x1 = 0.0222 | 0.9974 ± 0.0062 mPa·s
305.15 K, 101 kPa, x1 = 0.0348 | 1.127 ± 0.0069 mPa·s
305.15 K, 101 kPa, x1 = 0.0486 | 1.284 ± 0.0077 mPa·s
305.15 K, 101 kPa, x1 = 0.0545 | 1.355 ± 0.0081 mPa·s
305.15 K, 101 kPa, x1 = 0.0638 | 1.469 ± 0.0087 mPa·s
305.15 K, 101 kPa, x1 = 0.0737 | 1.59 ± 0.0094 mPa·s
305.15 K, 101 kPa, x1 = 0.0806 | 1.673 ± 0.0098 mPa·s
305.15 K, 101 kPa, x1 = 0.0915 | 1.799 ± 0.01 mPa·s
305.15 K, 101 kPa, x1 = 0.1114 | 1.993 ± 0.011 mPa·s
305.15 K, 101 kPa, x1 = 0.12 | 2.06 ± 0.012 mPa·s
305.15 K, 101 kPa, x1 = 0.129 | 2.117 ± 0.012 mPa·s
305.15 K, 101 kPa, x1 = 0.1433 | 2.18 ± 0.013 mPa·s
305.15 K, 101 kPa, x1 = 0.1698 | 2.271 ± 0.013 mPa·s
305.15 K, 101 kPa, x1 = 0.1999 | 2.339 ± 0.013 mPa·s
305.15 K, 101 kPa, x1 = 0.2347 | 2.388 ± 0.014 mPa·s
305.15 K, 101 kPa, x1 = 0.323 | 2.423 ± 0.014 mPa·s
305.15 K, 101 kPa, x1 = 0.4499 | 2.32 ± 0.013 mPa·s
305.15 K, 101 kPa, x1 = 0.4996 | 2.244 ± 0.013 mPa·s
305.15 K, 101 kPa, x1 = 0.6404 | 1.959 ± 0.011 mPa·s
305.15 K, 101 kPa, x1 = 0.7953 | 1.597 ± 0.0094 mPa·s
305.15 K, 101 kPa, x1 = 0.9529 | 1.214 ± 0.0073 mPa·s
306.72 K, 101.33 kPa, x1 = 0.11 | 1.907 ± 0.014 mPa·s
307.67 K, 101.33 kPa, x1 = 0.11 | 1.855 ± 0.014 mPa·s
308.15 K, 101 kPa, x1 = 0.0106 | 0.8203 ± 0.0052 mPa·s
308.15 K, 101 kPa, x1 = 0.0222 | 0.9263 ± 0.0058 mPa·s
308.15 K, 101 kPa, x1 = 0.0348 | 1.049 ± 0.0065 mPa·s
308.15 K, 101 kPa, x1 = 0.0486 | 1.194 ± 0.0072 mPa·s
308.15 K, 101 kPa, x1 = 0.0545 | 1.259 ± 0.0076 mPa·s
308.15 K, 101 kPa, x1 = 0.0638 | 1.361 ± 0.0082 mPa·s
308.15 K, 101 kPa, x1 = 0.0737 | 1.468 ± 0.0087 mPa·s
308.15 K, 101 kPa, x1 = 0.0806 | 1.541 ± 0.0091 mPa·s
308.15 K, 101 kPa, x1 = 0.0915 | 1.651 ± 0.0097 mPa·s
308.15 K, 101 kPa, x1 = 0.1114 | 1.827 ± 0.011 mPa·s
308.15 K, 101 kPa, x1 = 0.12 | 1.878 ± 0.011 mPa·s
308.15 K, 101 kPa, x1 = 0.129 | 1.927 ± 0.011 mPa·s
308.15 K, 101 kPa, x1 = 0.1433 | 1.99 ± 0.011 mPa·s
308.15 K, 101 kPa, x1 = 0.1698 | 2.077 ± 0.012 mPa·s
308.15 K, 101 kPa, x1 = 0.1999 | 2.144 ± 0.012 mPa·s
308.15 K, 101 kPa, x1 = 0.2347 | 2.195 ± 0.013 mPa·s
308.15 K, 101 kPa, x1 = 0.323 | 2.24 ± 0.013 mPa·s
308.15 K, 101 kPa, x1 = 0.4499 | 2.156 ± 0.012 mPa·s
308.15 K, 101 kPa, x1 = 0.4996 | 2.089 ± 0.012 mPa·s
308.15 K, 101 kPa, x1 = 0.6404 | 1.837 ± 0.011 mPa·s
308.15 K, 101 kPa, x1 = 0.7953 | 1.504 ± 0.0089 mPa·s
308.15 K, 101 kPa, x1 = 0.9529 | 1.155 ± 0.007 mPa·s
311.15 K, 101 kPa, x1 = 0.0106 | 0.765 ± 0.0049 mPa·s
311.15 K, 101 kPa, x1 = 0.0222 | 0.8626 ± 0.0054 mPa·s
313.15 K, 101.33 kPa, x1 = 0.011 | 0.767 ± 0.0077 mPa·s
313.15 K, 101.33 kPa, x1 = 0.0222 | 0.907 ± 0.0091 mPa·s
313.15 K, 101.33 kPa, x1 = 0.0348 | 0.965 ± 0.0097 mPa·s
313.15 K, 101.33 kPa, x1 = 0.0486 | 1.094 ± 0.011 mPa·s
